The text below walks through data of patent US9145392B2, “Imidazole amines as modulators of kinase activity” (Merck Patent GmbH, priority 2011, dated 2015).

The target in one test is P70S6K (T412E mutant) (Homo sapiens (Human), UniProt P23443, T412E). The test is described as follows: P70S6K enzyme assay. It counts as biochemical. The settings on record: read-out: IC50 p70S6K. A digest of the protocol: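 Read-out is the substrate/phosphopeptide ratio from mobility-shift electrophoresis on a LabChip 3000.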
Sequence of P70S6K (T412E mutant) (P23443 whole entry T412E): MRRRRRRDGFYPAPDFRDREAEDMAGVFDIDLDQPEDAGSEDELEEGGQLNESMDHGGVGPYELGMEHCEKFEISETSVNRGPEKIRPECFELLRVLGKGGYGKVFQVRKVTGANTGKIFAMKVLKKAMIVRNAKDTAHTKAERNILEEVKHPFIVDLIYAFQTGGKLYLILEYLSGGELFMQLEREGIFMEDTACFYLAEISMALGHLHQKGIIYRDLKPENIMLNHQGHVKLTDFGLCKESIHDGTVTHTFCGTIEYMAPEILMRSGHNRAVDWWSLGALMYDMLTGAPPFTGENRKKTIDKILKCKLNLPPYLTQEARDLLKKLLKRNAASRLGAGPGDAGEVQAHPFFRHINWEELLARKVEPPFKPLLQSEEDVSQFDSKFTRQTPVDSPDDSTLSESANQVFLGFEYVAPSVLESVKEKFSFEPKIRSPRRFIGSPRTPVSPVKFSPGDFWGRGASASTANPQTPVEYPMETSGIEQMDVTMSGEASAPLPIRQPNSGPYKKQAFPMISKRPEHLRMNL
The next test has as its target His-AKT (Full Length) (Homo sapiens (Human), UniProt P31749). The test is described as follows: AKT enzyme assay. It counts as biochemical. The note with it: read-out: IC50 AKT.

Sequence of His-AKT (Full Length) (P31749 whole entry): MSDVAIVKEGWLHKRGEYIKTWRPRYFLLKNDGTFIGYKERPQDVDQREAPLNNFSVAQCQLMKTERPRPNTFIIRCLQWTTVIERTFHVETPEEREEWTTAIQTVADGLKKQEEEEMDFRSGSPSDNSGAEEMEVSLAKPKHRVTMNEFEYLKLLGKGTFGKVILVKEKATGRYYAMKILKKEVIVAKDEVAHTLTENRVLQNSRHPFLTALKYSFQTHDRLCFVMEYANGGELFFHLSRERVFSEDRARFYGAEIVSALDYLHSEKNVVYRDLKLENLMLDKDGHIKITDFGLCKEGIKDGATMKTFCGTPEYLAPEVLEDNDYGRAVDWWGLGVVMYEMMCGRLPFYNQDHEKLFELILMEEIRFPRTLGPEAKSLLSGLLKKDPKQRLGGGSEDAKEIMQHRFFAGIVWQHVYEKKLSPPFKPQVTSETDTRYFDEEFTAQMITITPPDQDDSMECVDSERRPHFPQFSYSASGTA

With `CCc1c(N)ncnc1N1CCC(c2nc(-c3ccnc(C(F)(F)F)c3)cn2CCN2CCC2)CC1` [Compound 105, 6-(4-(1-(2-(azetidin-1-yl)ethyl)-4-(2-(trifluoromethyl)pyridin-4-yl)-1H-imidazol-2-yl)piperidin-1-yl)-5-ethylpyrimidin-4-amine], the IC50 (as a rule, the concentration at which inhibition is half-maximal) at P70S6K (T412E mutant) was 2.7 nM; on His-AKT (Full Length), 13 nM.
Taken in the same sequence, the figures for `CCc1c(N)ncnc1N1CCC(c2nc(-c3ccc(F)c(C(N)=O)c3)cn2CCN2CCC2)CC1` [Compound 106, 5-(2-(1-(6-amino-5-ethylpyrimidin-4-yl)piperidin-4-yl)-1-(2-(azetidin-1-yl)ethyl)-1H-imidazol-4-yl)-2-fluorobenzamide] were 21 nM and 49 nM.
In the same order, the values of `CCc1c(N)ncnc1N1CCC(c2nc(-c3ccc(OC)c(C(N)=O)c3)cn2CCN2CCC2)CC1` [Compound 107, 5-(2-(1-(6-amino-5-ethylpyrimidin-4-yl)piperidin-4-yl)-1-(2-(azetidin-1-yl)ethyl)-1H-imidazol-4-yl)-2-methoxybenzamide] are 98 nM and 160 nM.
In the same order, the values of `CCc1c(N)ncnc1N1CCC(c2nc(-c3ccc(F)c(OC)c3)cn2CCN2CCC2)CC1` [Compound 108, 6-(4-(1-(2-(azetidin-1-yl)ethyl)-4-(4-fluoro-3-methoxyphenyl)-1H-imidazol-2-yl)piperidin-1-yl)-5-ethylpyrimidin-4-amine] are 2.2 nM and 4.8 nM.
`Nc1ncnc(N2CCC(c3nc(-c4ccc(F)c(C(F)(F)F)c4)cn3CCN3CCC3)CC2)c1-c1cnoc1` [Compound 109, 6-(4-(1-(2-(azetidin-1-yl)ethyl)-4-(4-fluoro-3-(trifluoromethyl)phenyl)-1H-imidazol-2-yl)piperidin-1-yl)-5-(isoxazol-4-yl)pyrimidin-4-amine]: the IC50 on P70S6K (T412E mutant) stood at 0.9 nM; at His-AKT (Full Length), 1.6 nM.
In the same order, the values of `Nc1ncnc(N2CCC(c3nc(-c4ccc(F)c(C(F)(F)F)c4)cn3CCN3CCC3)CC2)c1-c1cc[nH]c1` [Compound 110, 6-(4-(1-(2-(azetidin-1-yl)ethyl)-4-(4-fluoro-3-(trifluoromethyl)phenyl)-1H-imidazol-2-yl)piperidin-1-yl)-5-(1H-pyrrol-3-yl)pyrimidin-4-amine] are 0.7 nM and 1.9 nM.
In the same order, the values of `CCc1c(N)ncnc1N1CCC(c2nc(-c3ccnc(C)c3)cn2CCN2CCC2)CC1` [Compound 111, 6-(4-(1-(2-(azetidin-1-yl)ethyl)-4-(2-methylpyridin-4-yl)-1H-imidazol-2-yl)piperidin-1-yl)-5-ethylpyrimidin-4-amine] are 8.7 nM and 106 nM.
Take `CCc1c(N)ncnc1N1CCC(c2nc(-c3ccnc(OC)c3)cn2CCN2CCC2)CC1` [Compound 112, 6-(4-(1-(2-(azetidin-1-yl)ethyl)-4-(2-methoxypyridin-4-yl)-1H-imidazol-2-yl)piperidin-1-yl)-5-ethylpyrimidin-4-amine]: the IC50 at P70S6K (T412E mutant) stood at 64.5 nM; on His-AKT (Full Length), 940 nM.
Taken in the same sequence, the figures for `CCc1c(N)ncnc1N1CCC(c2nc(-c3cncc(C)c3)cn2CCN2CCC2)CC1` [Compound 113, 6-(4-(1-(2-(azetidin-1-yl)ethyl)-4-(5-methylpyridin-3-yl)-1H-imidazol-2-yl)piperidin-1-yl)-5-ethylpyrimidin-4-amine] were 84 nM and 465 nM.
In the case of `CC(C)c1c(N)ncnc1N1CCC(c2nc(-c3ccc(F)c(C(F)(F)F)c3)cn2CCN2CCC2)CC1` [Compound 114, 6-(4-(1-(2-(azetidin-1-yl)ethyl)-4-(4-fluoro-3-(trifluoromethyl)phenyl)-1H-imidazol-2-yl)piperidin-1-yl)-5-isopropylpyrimidin-4-amine], the IC50 on P70S6K (T412E mutant) came out at 3.6 nM; at His-AKT (Full Length), 6.6 nM.
Taken in the same sequence, the figures for `COc1c(N)ncnc1N1CCC(c2nc(-c3ccnc(C(F)(F)F)c3)cn2CCN2CCC2)CC1` [Compound 115, 6-(4-(1-(2-(azetidin-1-yl)ethyl)-4-(2-(trifluoromethyl)pyridin-4-yl)-1H-imidazol-2-yl)piperidin-1-yl)-5-methoxypyrimidin-4-amine] were 2.8 nM and 21 nM.
As for `CCOc1c(N)ncnc1N1CCC(c2nc(-c3ccnc(C(F)(F)F)c3)cn2CCN2CCC2)CC1` [Compound 116, 6-(4-(1-(2-(azetidin-1-yl)ethyl)-4-(2-(trifluoromethyl)pyridin-4-yl)-1H-imidazol-2-yl)piperidin-1-yl)-5-ethoxypyrimidin-4-amine], the IC50 on P70S6K (T412E mutant) was 2.4 nM; at His-AKT (Full Length), 8.2 nM.
In the same order, the values of `CC(C)Oc1c(N)ncnc1N1CCC(c2nc(-c3ccnc(C(F)(F)F)c3)cn2CCN2CCC2)CC1` [Compound 117, 6-(4-(1-(2-(azetidin-1-yl)ethyl)-4-(2-(trifluoromethyl)pyridin-4-yl)-1H-imidazol-2-yl)piperidin-1-yl)-5-isopropoxypyrimidin-4-amine] are 4.9 nM and 9.1 nM.
In the same order, the values of `Nc1ncnc(N2CCC(c3nc(-c4ccnc(C(F)(F)F)c4)cn3CCN3CCC3)CC2)c1OCC(F)(F)F` [Compound 118, 6-(4-(1-(2-(azetidin-1-yl)ethyl)-4-(2-(trifluoromethyl)pyridin-4-yl)-1H-imidazol-2-yl)piperidin-1-yl)-5-(2,2,2-trifluoroethoxy)pyrimidin-4-amine] are 9.7 nM and 21 nM.
In the same order, the values of `CCc1c(N)ncnc1N1CCC(c2nc(-c3cccc(C(F)(F)F)n3)cn2CCN2CCC2)CC1` [Compound 119, 6-(4-(1-(2-(azetidin-1-yl)ethyl)-4-(6-(trifluoromethyl)pyridin-2-yl)-1H-imidazol-2-yl)piperidin-1-yl)-5-ethylpyrimidin-4-amine] are 25 nM and 420 nM.
As for `COc1cc(-c2cn(CCN3CCC3)c(C3CCN(c4ncnc(N)c4C#N)CC3)n2)ccc1F` [Compound 120, 4-amino-6-(4-(1-(2-(azetidin-1-yl)ethyl)-4-(4-fluoro-3-methoxyphenyl)-1H-imidazol-2-yl)piperidin-1-yl)pyrimidine-5-carbonitrile], the IC50 at P70S6K (T412E mutant) turned out to be 1 nM; on His-AKT (Full Length), 2.4 nM.
Taken in the same sequence, the figures for `COc1cc(-c2cn(CCN3CCC3)c(C3CCN(c4ncnc(N)c4C(N)=O)CC3)n2)ccc1F` [Compound 121, 4-amino-6-(4-(1-(2-(azetidin-1-yl)ethyl)-4-(4-fluoro-3-methoxyphenyl)-1H-imidazol-2-yl)piperidin-1-yl)pyrimidine-5-carboxamide] were 1 nM and 2.4 nM.
Taken in the same sequence, the figures for `Cc1cc(-c2cn(CCN3CCC3)c(C3CCN(c4ncnc(N)c4C#N)CC3)n2)ccc1F` [Compound 122, 4-amino-6-(4-(1-(2-(azetidin-1-yl)ethyl)-4-(4-fluoro-3-methylphenyl)-1H-imidazol-2-yl)piperidin-1-yl)pyrimidine-5-carbonitrile] were 0.7 nM and 2 nM.
In the same order, the values of `Cc1cc(-c2cn(CCN3CCC3)c(C3CCN(c4ncnc(N)c4C(N)=O)CC3)n2)ccc1F` [Compound 124, 4-amino-6-(4-(1-(2-(azetidin-1-yl)ethyl)-4-(4-fluoro-3-methylphenyl)-1H-imidazol-2-yl)piperidin-1-yl)pyrimidine-5-carboxamide] are 2 nM and 14 nM.
Consider `N#Cc1c(N)ncnc1N1CCC(c2nc(-c3ccnc(C(F)(F)F)c3)cn2CCN2CCC2)CC1` [Compound 125, 4-amino-6-(4-(1-(2-(azetidin-1-yl)ethyl)-4-(2-(trifluoromethyl)pyridin-4-yl)-1H-imidazol-2-yl)piperidin-1-yl)pyrimidine-5-carbonitrile], for which the IC50 is 1.5 nM on P70S6K (T412E mutant) and 9.7 nM at His-AKT (Full Length).
Taken in the same sequence, the figures for `Nc1ncnc(N2CCC(c3nc(-c4ccnc(C(F)(F)F)c4)cn3CCN3CCC3)CC2)c1Br` [Compound 126, 6-(4-(1-(2-(azetidin-1-yl)ethyl)-4-(2-(trifluoromethyl)pyridin-4-yl)-1H-imidazol-2-yl)piperidin-1-yl)-5-bromopyrimidin-4-amine] were 0.5 nM and 2.2 nM.
In the same order, the values of `Nc1ncnc(N2CCC(c3nc(-c4ccnc(C(F)(F)F)c4)cn3CCNCCCCl)CC2)c1Br` [Compound 127, 5-bromo-6-(4-(1-(2-((3-chloropropyl)amino)ethyl)-4-(2-(trifluoromethyl)pyridin-4-yl)-1H-imidazol-2-yl)piperidin-1-yl)pyrimidin-4-amine] are 1 nM and 2.8 nM.
In the same order, the values of `NC(=O)c1c(N)ncnc1N1CCC(c2nc(-c3ccnc(C(F)(F)F)c3)cn2CCN2CCC2)CC1` [Compound 128] are 5.5 nM and 90 nM.
Turning to `N#Cc1c(N)ncnc1N1CCC(c2nc(-c3ccoc3)cn2CCN2CCC2)CC1` [Compound 129, 4-amino-6-(4-(1-(2-(azetidin-1-yl)ethyl)-4-(furan-3-yl)-1H-imidazol-2-yl)piperidin-1-yl)pyrimidine-5-carbonitrile], the figures for the IC50 at P70S6K (T412E mutant) and at His-AKT (Full Length) were 11 nM and 250 nM, respectively.
In the same order, the values of `N#Cc1c(N)ncnc1N1CCC(c2nc(-c3ccsc3)cn2CCN2CCC2)CC1` [Compound 130, 4-amino-6-(4-(1-(2-(azetidin-1-yl)ethyl)-4-(thiophen-3-yl)-1H-imidazol-2-yl)piperidin-1-yl)pyrimidine-5-carbonitrile] are 2.6 nM and 91 nM.
Taken in the same sequence, the figures for `N#Cc1c(N)ncnc1N1CCC(c2nc(-c3ccccc3)cn2CCN2CCC2)CC1` [Compound 131, 4-amino-6-(4-(1-(2-(azetidin-1-yl)ethyl)-4-phenyl-1H-imidazol-2-yl)piperidin-1-yl)pyrimidine-5-carbonitrile] were 5.7 nM and 165 nM.
In the same order, the values of `N#Cc1c(N)ncnc1N1CCC(c2nc(-c3cnoc3)cn2CCN2CCC2)CC1` [Compound 132, 4-amino-6-(4-(1-(2-(azetidin-1-yl)ethyl)-4-(isoxazol-4-yl)-1H-imidazol-2-yl)piperidin-1-yl)pyrimidine-5-carbonitrile] are 23 nM and 220 nM.
